In US10759810B2 (AO “TATKHIMFARMPREPARATY”, priority 2016, dated 2020):
Converted amounts (≈) assume the structure as drawn.

Columns and labels:
[1] = test system: clinical freshly isolated strains of Staphylococcus aureus MRSA; experiment: Antibacterial activity (MIC), clinical MRSA strains overall; type: cell-based; conditions: in words, in almost all cases
Method: (§1) Measurement of antibacterial activity was carried out on the strains of Staphylococcus aureus ATCC 29213 (museum strain), Staphylococcus epidermidis (clinical isolate), Micrococcus luteus (clinical isolate), Bacillus subtilis 168 (museum strain), Escherichia coli ATCC 25922 (museum strain), Salmonella typhimurium TA100 (museum strain), Pseudomonas aeruginosa ATCC 27853 (museum strain). A comparative assessment of the spectrum of antibacterial action on reference strains and clinical isolates of gram-positive microorganisms was carried out using a micromethod for determining the minimum inhibitory concentration (MIC) using serial dilutions in Mueller-Hinton broth using 96-well sterile plates.
(§2) The first lowest concentration of the antibiotic (from a series of successive dilutions), where bacterial growth is not visually determined, is considered to be the minimum inhibitory concentration (MIC).
(§3) For the preparation of inoculum (infectious material used for artificial contamination), intended for the study of antibacterial activity, was used a pure daily culture of bacteria grown on a dense nutrient medium (agar LB medium). […] The inoculum was used for 15 minutes after preparation; the purity of the bacterial strains was monitored before each experiment. […]

S. aureus MRSA 1143 = experiment: MIC on clinical strain; type: cell-based, Staphylococcus aureus; conditions: inoculum 10^7 CFU/ml
Method: as §1, §2
(§4) For the preparation of inoculum (infectious material used for artificial contamination), intended for the study of antibacterial activity, was used a pure daily culture of bacteria grown on a dense nutrient medium (agar LB medium). In a sterile isotonic solution of sodium chloride, a suspension of microorganisms was prepared, adjusting the inoculum density to 0.5 according to the McFarland standard (1.5·10^8 CFU/ml). Then, the resulting inoculum was diluted to a concentration of 10^7 CFU/ml with LB-broth. The inoculum was used for 15 minutes after preparation; the purity of the bacterial strains was monitored before each experiment.
(§5) 100 μl of Muller-Hinton broth was added to the wells of each plate; the test base was introduced into the first well at a concentration of 128 μg/ml in a volume of 100 μl and its concentration was adjusted to 0.25 μg/ml by consecutive two-fold dilution. […] Each preparation in the experiment was titrated three times. […] In addition, the purity of nutrient media and solvents was monitored. The plates were incubated in a thermostat at […] for 24 hours.
(§6) The growth of cultures was assessed visually, comparing the growth of microorganisms in the presence of test compounds with the growth of culture without them.

S. aureus MRSA 1173 = experiment: MIC on clinical strain; type: cell-based, Staphylococcus aureus; conditions: inoculum 10^7 CFU/ml
Method: as §1, §2, §4, §5, §6

S. aureus MRSA 1163 = experiment: MIC on clinical strain; type: cell-based, Staphylococcus aureus; conditions: inoculum 10^7 CFU/ml
Method: as §1, §2, §4, §5, §6

S. aureus MRSA 967 = experiment: MIC on clinical strain; type: cell-based, Staphylococcus aureus; conditions: inoculum 10^7 CFU/ml
Method: as §1, §2, §4, §5, §6

S. aureus MRSA 981 = experiment: MIC on clinical strain; type: cell-based, Staphylococcus aureus; conditions: inoculum 10^7 CFU/ml
Method: as §1, §2, §4, §5, §6

S. aureus MRSA 1053 = experiment: MIC on clinical strain; type: cell-based, Staphylococcus aureus; conditions: inoculum 10^7 CFU/ml
Method: as §1, §2, §4, §5, §6

S. aureus MRSA 983 = experiment: MIC on clinical strain; type: cell-based, Staphylococcus aureus; conditions: inoculum 10^7 CFU/ml
Method: as §1, §2, §4, §5, §6

S. aureus MRSA 1131 = experiment: MIC on clinical strain; type: cell-based, Staphylococcus aureus; conditions: inoculum 10^7 CFU/ml
Method: as §1, §2, §4, §5, §6

S. aureus MRSA 1168 = experiment: MIC on clinical strain; type: cell-based, Staphylococcus aureus; conditions: inoculum 10^7 CFU/ml
Method: as §1, §2, §4, §5, §6

S. aureus MRSA 1130 = experiment: MIC on clinical strain; type: cell-based, Staphylococcus aureus; conditions: inoculum 10^7 CFU/ml
Method: as §1, §2, §4, §5, §6

S. aureus MRSA 2020 = experiment: MIC on clinical strain; type: cell-based, Staphylococcus aureus; conditions: inoculum 10^7 CFU/ml
Method: as §1, §2, §4, §5, §6

S. aureus MRSA 1065 = experiment: MIC on clinical strain; type: cell-based, Staphylococcus aureus; conditions: inoculum 10^7 CFU/ml
Method: as §1, §2, §4, §5, §6

[2] = test system: Bacillus subtilis 168 (museum strain); experiment: MIC, serial dilutions in Mueller-Hinton broth; type: cell-based; conditions: inoculum 10^7 CFU/ml; gram-positive
Method: as §1, §2, §4, §5, §6

[3] = test system: Salmonella typhimurium TA100 (museum strain); experiment: MIC, serial dilutions in Mueller-Hinton broth; type: cell-based; conditions: inoculum 10^7 CFU/ml; gram-negative
Method: as §1, §2, §4, §5, §6

[4] = test system: Pseudomonas aeruginosa ATCC 27853 (museum strain); experiment: MIC, serial dilutions in Mueller-Hinton broth; type: cell-based; conditions: inoculum 10^7 CFU/ml; gram-negative
Method: as §1, §2, §4, §5, §6

[5] = test system: Staphylococcus epidermidis (clinical isolate); experiment: MIC, serial dilutions in Mueller-Hinton broth; type: cell-based; conditions: inoculum 10^7 CFU/ml; gram-positive
Method: as §1, §2, §4, §5, §6

[6] = test system: Staphylococcus aureus ATCC 29213 (museum strain); experiment: MIC, serial dilutions in Mueller-Hinton broth; type: cell-based; conditions: inoculum 10^7 CFU/ml; gram-positive
Method: as §1, §2, §4, §5, §6

[7] = test system: Micrococcus luteus (clinical isolate); experiment: MIC, serial dilutions in Mueller-Hinton broth; type: cell-based; conditions: inoculum 10^7 CFU/ml; gram-positive
Method: as §1, §2, §4, §5, §6

[8] = test system: Escherichia coli ATCC 25922 (museum strain); experiment: MIC, serial dilutions in Mueller-Hinton broth; type: cell-based; conditions: inoculum 10^7 CFU/ml; gram-negative
Method: as §1, §2, §4, §5, §6

[9] = test system: gram-positive microorganisms; experiment: Antibacterial activity (MIC), gram-positive strains; type: cell-based; conditions: in words, versus comparison drugs
Method: as §1, §2, §3

[10] = test system: gram-negative bacterial strains; experiment: Antibacterial activity (MIC), gram-negative strains; type: cell-based; conditions: in words
Method: as §1, §2, §3

ICR mice (CD-1) = experiment: General acute toxicity, fixed-dose method, intragastric administration; type: in vivo, mouse; conditions: for Number of animals in the group/number of dead animals / LD10 / LD16 / LD50 with confidence interval / LD84: mouse
Method: The acute toxicity of compound I-2 was studied using the fixed-dose method in ICR mice (CD-1) (6-8 weeks, 20-25 g) of both sexes, 6 animals per group. The starting dose for testing compound I-2 was 5000 mg/kg. The intragastric (oral) administration of compound I-2 to animals (<2.5 ml/100 g) using a gastric probe was used.

[11] = test system: microorganism strains under study; experiment: Antibacterial activity (MIC), whole strain panel; type: cell-based; conditions: in words, from Table 1
Method: as §1, §2, §3

SMILES: Cc1ncc(CN2CCN(c3cc4c(cc3F)c(=O)c(C(=O)O)cn4C3CC3)CC2)c(CO)c1O [Compound I-2, 1-cyclopropyl-6-fluoro-7-(4-((5-hydroxy-4-hydroxymethyl-6-methylpyridine-3-yl)methyl)piperazinyl)-4-oxo-1,4-dihydroquinolin-3-carboxylic acid]
- MIC on clinical MRSA strains compared with ceftriaxone [1]: superior to ceftriaxone
- The value of the MIC, S. aureus MRSA 1143 (S. aureus MRSA 1143): 32 µg/mL
- The value of the MIC, S. aureus MRSA 1173 (S. aureus MRSA 1173): 16 µg/mL
- The value of the MIC, S. aureus MRSA 1163 (S. aureus MRSA 1163): 0.5 µg/mL
- The value of the MIC, S. aureus MRSA 967 (S. aureus MRSA 967): 16 µg/mL
- The value of the MIC, S. aureus MRSA 981 (S. aureus MRSA 981): 16 µg/mL
- The value of the MIC, S. aureus MRSA 1053 (S. aureus MRSA 1053): 16 µg/mL
- The value of the MIC, S. aureus MRSA 983 (S. aureus MRSA 983): 8 µg/mL
- The value of the MIC, S. aureus MRSA 1131 (S. aureus MRSA 1131): 16 µg/mL
- The value of the MIC, S. aureus MRSA 1168 (S. aureus MRSA 1168): 0.25 µg/mL
- The value of the MIC, S. aureus MRSA 1130 (S. aureus MRSA 1130): 16 µg/mL
- The value of the MIC, S. aureus MRSA 2020 (S. aureus MRSA 2020): 0.25 µg/mL
- The value of the MIC, S. aureus MRSA 1065 (S. aureus MRSA 1065): 32 µg/mL
- MIC, B. subtilis [2]: <2 µg/mL
- MIC, S. typhimurium [3]: 2 µg/mL (≈ 4.14 µM)
- MIC, P. aerugenosa [4]: >64 µg/mL
- MIC, S. epidermidis [5]: 2 µg/mL (≈ 4.14 µM)
- MIC, S. aureus [6]: 2 µg/mL (≈ 4.14 µM)
- MIC, M. luteus [7]: 4 µg/mL (≈ 8.29 µM)
- MIC, E. coli [8]: 2 µg/mL (≈ 4.14 µM)
- antibacterial action with respect to gram-positive microorganisms [9]: comparable with the comparison drugs
- antibacterial activity in relation to gram-negative bacterial strains [10]: low antibacterial activity
- changes during the autopsy of mice (ICR mice (CD-1); end of experiment, pathomorphological dissection): No changes were observed
- hazard class (ICR mice (CD-1); from acute toxicity in mice): 4
- behaviour after dosing (ICR mice (CD-1); mice of both sexes, 5000 mg/kg intragastric): slight inhibition of activity
- death of animals (mortality) (ICR mice (CD-1); mice of both sexes, 5000 mg/kg intragastric, whole experiment): not observed
- abnormalities during the observation period (ICR mice (CD-1); mice, 5000 mg/kg intragastric): no abnormalities were observed
- time until animals began to take food and water (ICR mice (CD-1); mice, 5000 mg/kg intragastric): 1.5 to 2 h
- time until behavior of animals returned to normal (ICR mice (CD-1); mice, 5000 mg/kg intragastric): 20 to 30 min
- mean lethal dose (ICR mice (CD-1); mice, intragastric, up to 5000 mg/kg): not detected
- Number of animals in the group/number of dead animals (ICR mice (CD-1); females, 5000 mg/kg intragastric): 6/0
- LD10 (ICR mice (CD-1); females, intragastric): >5000 mg/kg
- LD16 (ICR mice (CD-1); females, intragastric): >5000 mg/kg
- LD50 with confidence interval (ICR mice (CD-1); females, intragastric): >5000 mg/kg
- LD84 (ICR mice (CD-1); females, intragastric): >5000 mg/kg
- Number of animals in the group/number of dead animals (ICR mice (CD-1); males, 5000 mg/kg intragastric): 6/0
- LD10 (ICR mice (CD-1); males, intragastric): >5000 mg/kg
- LD16 (ICR mice (CD-1); males, intragastric): >5000 mg/kg
- LD50 with confidence interval (ICR mice (CD-1); males, intragastric): >5000 mg/kg
- LD84 (ICR mice (CD-1); males, intragastric): >5000 mg/kg
- antibacterial activity against the microorganism strains under study [11]: most active
